Assay results as given in patent US11752156B2, “Compositions and methods for treating hyperproliferative skin disorders” (Athenex HK Innovative Limited, priority 2018, dated 2023).

What was measured:
[1] = system: cell proliferation/growth; test: combined treatment with KX01 and tazarotene, inhibition of cell proliferation/growth; format: cell-based
Excerpt: (§1) Examples of suitable retinoids include retinol, retinal, retinoic acid isotretinoin, alitreninoin, etretinate, acitretin, adapalene, bexarotene, and/or tazarotene. FIGS. 7 and 8 show the effects of tazarotene on growth of cells in culture, including CCD-1106 KERTr keratinocytes (FIG. 7) and A431 cells (epidermoid cells obtained from a human squamous cell carcinoma, FIG. 8).

[2] = system: A431 cells (epidermoid cells obtained from a human squamous cell carcinoma); test: inhibition of cell growth by tazarotene, A431; format: cell-based
Excerpt: FIG. 8: Inhibition of A431 cell growth by tazarotenee, as determined by staining.
as §1

[3] = system: CCD-1106 KERTr keratinocytes; test: inhibition of cell growth by tazarotene, keratinocytes; format: cell-based, human
Excerpt: FIG. 7: Inhibition of CCD1106 KERTr keratinocyte growth by tazarotene, as determined by staining.
as §1

`CCOC(=O)c1ccc(C#Cc2ccc3c(c2)C(C)(C)CCS3)nc1` [Tazarotene, tazarotene] was tested, and the H [1] was 1.0, the Imax [1] was 1.1 and the IC50 ([1]; column head says nM) was 13300 nM. It also gave a Maximum inhibition ([2]; A431, model estimate) of 1.09, an H ([2]; A431, steepness of slope) of 1.66 and an IC50 ([2]; Homo sapiens, A-431, A431, model estimate) of 36.3 µM. It also gave an IC50 ([3]; Homo sapiens, CCD-1106, model estimate) of 12.4 µM, a Maximum inhibition ([3]; model estimate) of 0.903 and an H ([3]; steepness of slope) of 2.11.
